Measured values published in patent publication US11576985B2, “Contrast imaging agent with dissolved gas-evolving fluid” (BAYER HEALTHCARE LLC, priority 2015, dated 2023).
Read-outs that look alike come from different tables or passages of the source.

Key:
[1] = humans, compared with rats; cited from earlier work
[2] = rats; cited from earlier work
[3] = Amount of xenon gas dissolved in water, blood and oil with increasing pressure, computed by Henry's Law; format: physicochemical
Text: Dissolution of xenon gas in liquid, such as saline or other medical fluid, including an iodine X-ray contrast solution, provides a diagnostic contrast composition with a variety of available concentrations of xenon (mg) per mL of liquid based on a number of parameters, including pressure or presence of one or more concentration-augmenting compositions. For example, the concentration of the gas-evolving fluid in the carrier fluid may be dependent on pressure and temperature. In certain circumstances, it may be desirable to augment the concentration of the gas-evolving fluid beyond the carrying capacity of the carrier fluid at, for example, standard temperature and pressure. For example, according to Henry's Law, the amount of a gas dissolved in a liquid is proportional to the partial pressure of the gas in the volume of the liquid at a given temperature. Table 2 below uses the coefficients from Table 1 above to compute the amount of xenon gas that is dissolved in water, blood, and oil based on increasing pressure (from 1 atm to 30 atm).

[4] = 37 C., cited from earlier work

SMILES | retention half-life [1] | retention half-life [2] | Amount of Gas Dissolved in the Liquid ([3]; blood, 1 atm) | Amount of Gas Dissolved in the Liquid ([3]; blood, 2 atm) | Amount of Gas Dissolved in the Liquid ([3]; blood, 4 atm) | Amount of Gas Dissolved in the Liquid ([3]; blood, 5 atm) | Amount of Gas Dissolved in the Liquid ([3]; blood, 30 atm) | Amount of Gas Dissolved in the Liquid ([3]; oil, 1 atm) | Amount of Gas Dissolved in the Liquid ([3]; oil, 2 atm) | Amount of Gas Dissolved in the Liquid ([3]; oil, 4 atm) | Amount of Gas Dissolved in the Liquid ([3]; oil, 5 atm) | Amount of Gas Dissolved in the Liquid ([3]; oil, 30 atm) | Amount of Gas Dissolved in the Liquid ([3]; saline, 1 atm) | Amount of Gas Dissolved in the Liquid ([3]; saline, 2 atm) | Amount of Gas Dissolved in the Liquid ([3]; saline, 4 atm) | Amount of Gas Dissolved in the Liquid ([3]; saline, 5 atm) | Amount of Gas Dissolved in the Liquid ([3]; saline, 30 atm) | bunsen constant ([4]; olive oil) | bunsen constant ([4]; seawater (*1.3 of pure water)) | bunsen constant ([4]; water)
FC(F)(F)C(F)(F)C(F)(F)C(F)(F)C(F)(F)C(F)(F)C(F)(F)C(F)(F)Br [Perfluorooctylbromide] | shorter retention half-life in humans | about 6 hours |  |  |  |  |  |  |  |  |  |  |  |  |  |  |  |  |  | 
[Xe] [xenon] |  |  | 0.7603 mgmXe/ml | 1.521 mgmXe/ml | 3.041 mgmXe/ml | 3.801 mgmXe/ml | 22.81 mgmXe/ml | 9.942 mgmXe/ml | 19.88 mgmXe/ml | 39.77 mgmXe/ml | 49.71 mgmXe/ml | 298.2589 mgmXe/ml | 0.4971 mgmXe/ml | 0.9942 mgmXe/ml | 1.988 mgmXe/ml | 2.485 mgmXe/ml | 14.91 mgmXe/ml | 1.7 | 0.1105 | 0.085
